Data as given in publication PMC7275043 (Nature Communications, 2020).

What was measured:
[1] = test system: Vero E6 cells
[2] = test system: ZIKV (African strain MR766); assay: microbe, parasite or virus in culture; type: cell-based, Zika virus
[3] = test system: MDCK cells
[4] = test system: influenza A strains: H1N1 strain A/PR8 and H5N1 strain A/NIBRG-14; type: cell-based
[5] = test system: influenza B/Mem; set-up: species or system BALB/c mice; conditions: mouse, in vivo, iv, 2.5 mg/kg
[6] = test system: influenza B virus strains (B/Mem, B/Wis, B/Bris); type: cell-based
[7] = test system: PB2CB from influenza B/Mem (PB2IBV); type: biochemical
[8] = test system: HEK 293T cells
[9] = test system: influenza A strains (H1N1, H3N2, H3N3, H3N8, H5N1); type: cell-based
[10] = mouse, in vivo, iv, 10 mg/kg
[11] = target: mouse PrP^C in L929 15.9 and CAD5 cells (Mus musculus, UniProt P04925)
mouse PrP^C in L929 15.9 and CAD5 cells, sequence (P04925 23-230 limits assumed): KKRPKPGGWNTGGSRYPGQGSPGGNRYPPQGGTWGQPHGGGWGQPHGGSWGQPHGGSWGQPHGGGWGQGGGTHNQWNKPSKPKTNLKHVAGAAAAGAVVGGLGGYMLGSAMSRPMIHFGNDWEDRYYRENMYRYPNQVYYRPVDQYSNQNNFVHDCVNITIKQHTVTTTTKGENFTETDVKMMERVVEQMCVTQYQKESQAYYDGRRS

[12] = test system: influenza B/Mem; type: cell-based, influenza B/Memphis/12/97
[13] = test system: influenza B/Mem; type: cell-based, influenza B/Memphis/12/97; remark: listed apart in the source
[14] = target: PB2 (FLAG-tagged, A/WSN-FLAG) (Influenza A virus, UniProt P03427); type: cell-based, influenza A/WSN/1933(H1N1)
PB2 (FLAG-tagged, A/WSN-FLAG), sequence (P03427 whole entry, looked up): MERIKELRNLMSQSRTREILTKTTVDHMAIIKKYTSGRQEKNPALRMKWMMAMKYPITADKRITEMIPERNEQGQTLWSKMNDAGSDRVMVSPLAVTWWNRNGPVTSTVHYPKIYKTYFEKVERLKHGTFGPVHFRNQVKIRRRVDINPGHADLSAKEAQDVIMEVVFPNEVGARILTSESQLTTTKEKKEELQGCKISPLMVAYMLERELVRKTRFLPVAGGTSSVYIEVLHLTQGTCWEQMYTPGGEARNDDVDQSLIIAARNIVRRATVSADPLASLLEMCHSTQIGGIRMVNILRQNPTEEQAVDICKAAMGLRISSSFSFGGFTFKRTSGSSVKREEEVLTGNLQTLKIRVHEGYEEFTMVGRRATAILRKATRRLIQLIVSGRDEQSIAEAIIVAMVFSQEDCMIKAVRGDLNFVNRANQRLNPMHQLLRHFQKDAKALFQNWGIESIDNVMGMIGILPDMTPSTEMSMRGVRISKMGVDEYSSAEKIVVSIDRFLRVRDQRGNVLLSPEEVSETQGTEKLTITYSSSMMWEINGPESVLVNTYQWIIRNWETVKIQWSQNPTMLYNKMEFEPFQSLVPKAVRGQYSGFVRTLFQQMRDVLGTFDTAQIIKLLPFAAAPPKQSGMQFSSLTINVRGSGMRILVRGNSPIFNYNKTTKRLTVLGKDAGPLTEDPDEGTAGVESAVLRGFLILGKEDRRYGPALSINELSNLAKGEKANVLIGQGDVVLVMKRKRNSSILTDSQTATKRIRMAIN

[15] = target: the molecule itself

## C[C@@]1(O)[C@H](O)[C@@H](CO)O[C@H]1n1ccc2c(N)ncnc21 [7-DMA, 7-deaza-2′-C-methyladenosine, reference compound]
[1]
  aspecific toxicity on the mammalian host cell: did not originate from aspecific toxicity
[2]; Zika virus, Vero C1008, 48 h, n = 3, read-out: IC50, fraction of ZIKV-infected cells
  IC50: 4.74 ± 0.31 µM

## Ac-RLIQLIVSRPPRLIQLIVSR-NH2 [compound 12]
[3]
  aspecific cytotoxic effects on MDCK cells: did not originate from aspecific cytotoxic effects
[4]
  amount of newly produced virus (TCID50 titration), antiviral screen: showed the most pronounced effect

## Ac-WDLIQLIVSDGSDLIQLIVSD-NH2 [12B]
[5]
  influenza B replication in the murine infection model (viral load in lungs): not affected
[3]
  aspecific toxic effects on MDCK cells: no aspecific toxic effects were observed
[6]
  antiviral activity in time of addition assays and pretreatment of influenza B virion particles: showed no antiviral activity
  effect on replication of influenza B virus strains: did not interfere with the replication
[7]
  effect on aggregation or conformational stability of PB2IBV (Th-T, ANS): showed no effect on the aggregation or conformational stability
[8]
  aspecific toxic effects on HEK 293T cells: no aspecific toxic effects were observed
[9]
  antiviral activity on influenza A strains with APR polymorphisms: retains activity against all these influenza A strains
[10]
  blood analysis and histopathological evaluation of all major organs: revealed no abnormalities
[2]
  interference with ZIKV replication: no interference with ZIKV replication is observed
[11]
  conversion of PrP to the aggregated prion state (PrP^SC): incapable to convert PrP
[12]
  influenza B replication in multicycle replication assay: unaffected
[13]
  protection against cytopathic effects of influenza B: no protection against cytopathic effects
[14]
  soluble PB2 in infected cells: reduction of soluble PB2

B1: peptide 12B (peptide)
peptide: WDLIQLIVSDGSDLIQLIVSD
notes: also called amyloid peptide 12B; synthetic amyloid 12B; source: synthetic peptide
[15]
  binding result: binds
